Laboratory results from patent US20160008243A1, “METHOD OF TREATING HAIR” (priority 2013, published 2016).

Test: Hair switch straightening test (switch volume after treatment, rinsing, combing and drying)
Experimental: Dark brown European wavy#6 switches of length 25 cm and weight 2 gms, were dosed with 2 ml each of different levels of trans aconitic acid solutions. They were combed straight and left to develop for at least 20 minutes. They were subsequently rinsed for 30 seconds under the tap. They were then combed straight and left to dry overnight. When dry the switches were combed straight and pictures taken. All switches looked straight without the waviness of the pre-treated switches. […] (Here volume refers to the projection of the switch image on to the screen and is given in mm^2).

[1] = 5% solution at pH 2, 2 ml per 2 g switch, at least 20 min, rinsed, dried overnight

SMILES | % benefit over water (5% solution at pH 2) [%] | Volume in mm^2 (projection of the switch image on to the screen) [1] [mm^2] | % benefit over water (0.5% solution at pH 2) [%] | Volume in mm^2 (projection of the switch image on to the screen) (0.5% solution at pH 2) [mm^2] | % benefit over water (1% solution at pH 2) [%] | Volume in mm^2 (projection of the switch image on to the screen) (1% solution at pH 2) [mm^2] | % benefit over water (2.5% solution at pH 2) [%] | Volume in mm^2 (projection of the switch image on to the screen) (2.5% solution at pH 2) [mm^2] | % benefit over water (5% solution at pH 3) [%] | Volume in mm^2 (projection of the switch image on to the screen) (5% solution at pH 3) [mm^2] | Hair straightening benefit (in words) (applied to hair, conclusion from the table)
O=C(O)CC(O)(CC(=O)O)C(=O)O [Citric acid, reference compound] | 33.6 | 9481 | – | – | – | – | – | – | – | – | –
O=C(O)/C=C(\CC(=O)O)C(=O)O [trans Aconitic acid, trans aconitic acid] | 40.8 | 8456 | 15.4 | 12073 | 20.4 | 11363 | 24.6 | 10763 | 17.3 | 11812 | gives hair straightening benefits
